In ChEMBL document CHEMBL1127328, “Copper complexation by 3-hydroxypyridin-4-one iron chelators: structural and iron competition studies” (J Med Chem, 1994):

Assays:
Type in all cases: ADME
[1] = log K1 value of the compound
[2] = Acid dissociation constant was determined
[3] = log K2 value of the compound
[4] = log K3 value of the compound

Row | SMILES | Log K1 [1] | pKa ([2]; read-out: pKa1) | pKa ([2]; read-out: pKa2) | Log K2 [3] | Log K3 [4]
1 | O=C(O)CCn1ccc(=O)c(O)c1 | 9.48 | 2.92 | 8.91 | 7.48 | 
2 | Cn1ccc(=O)c(O)c1 | 9.35 | 3.35 | 8.8 | 7.58 | 
3 | Oc1ccncc1O | 9.49 | 3.36 |  | 7.64 | 
4 | CCn1ccc(=O)c(O)c1C |  | 3.79 | 9.79 |  | 
5 | CCc1c(O)c(=O)ccn1CC | 13.18 | 3.93 | 10.1 | 7.03 | 2.65
6 | CCc1c(O)c(=O)ccn1C |  | 3.74 | 9.7 |  | 
7 | Cc1c(O)c(=O)ccn1C [DEFERIPRONE] | 11.48 | 3.84 | 9.86 | 10.22 | 5.64
